In patent publication US11253015B2, “Methods and devices for preventing viral transmission” (priority 2020, dated 2022):
Where two headings read alike, the source gives them in different places.

Assays:
HUVEC cells [1] = assay: EF-induced reorientation of endothelial cells (orientation index Oi); type: cell-based, human
Protocol: A series of images was taken with an image analyser immediately before EF exposure and at 4, 8 and 24 hours of EF exposure. Cell orientation was quantified as an orientation index (Oi), which is defined as Oi=cos 2(α), where a is the angle formed by the long axis of a cell with a line drawn perpendicular to the field lines. A cell with its long axis parallel to the vector of the EF will have an Oi of −1, and a cell with its long axis exactly perpendicular to the EF vector will have an Oi of +1. A randomly oriented population of cells will have an average Oi {defined as [Σn cos 2(α)]÷n} of 0. The significance of this two-dimensional orientation distribution against randomness was calculated using Rayleigh's distribution. A long:short axis ratio was calculated for assessment of elongation.
Cell alignment was quantified using an orientation index Oi=cos 2(α), where α is the angle formed between the long axis of a cell and a line drawn perpendicular to the field lines. In cells oriented perpendicular to the field vector, the Oi is +1, cells parallel to the field vector give an Oi of −1 and random orientation gives an Oi of 0.

HUVEC cells [2] = assay: EF-induced elongation of endothelial cells (long:short axis ratio); type: cell-based, human; conditions: for long:short axis ratio in EF-treated cells: inhibitor present during EF
Protocol: HUVEC cells were seeded in a trough formed by two parallel (1 cm apart) strips of glass coverslip (No. 1, length of 22 mm) fixed to the base of the dish with silicone grease. Scratch lines were made perpendicular to the long axis of the chamber with a fine sterile needle and used as reference marks for directed cell migration. Cells were incubated for 24-48 hours (37° C., 5% CO2) before a roof coverslip was applied and sealed with silicone grease. The final dimensions of the chamber, through which current was passed, were 22×10×0.2 mm. Agar-salt bridges not less than 15 cm long were used to connect silver/silver-chloride electrodes in beakers of Steinberg's solution (58 mM NaCl, 0.67 mM KCl, 0.44 mM Ca(NO3)2, 1.3 mM MgSO4, 4.6 mM Trizma base, pH 7.8-8.0), to pools of excess culture medium at either side of the chamber. Field strengths were measured directly at the beginning of, the end of and during each experiment. No fluctuations in field strength were observed. […] (50 μM), the Rho kinase inhibitor Y27632 (50 μM), both Akt and Rho kinase inhibitors (10 μM each) or latrunculin (50 nM) for 1 hour before EF stimulation. The same concentration of drug was present during EF exposure in a CO2 incubator.
A series of images was taken with an image analyser immediately before EF exposure and at 4, 8 and 24 hours of EF exposure. Cell orientation was quantified as an orientation index (Oi), which is defined as Oi=cos 2(α), where a is the angle formed by the long axis of a cell with a line drawn perpendicular to the field lines. A cell with its long axis parallel to the vector of the EF will have an Oi of −1, and a cell with its long axis exactly perpendicular to the EF vector will have an Oi of +1. […] The significance of this two-dimensional orientation distribution against randomness was calculated using Rayleigh's distribution. A long:short axis ratio was calculated for assessment of elongation.
HUVEC cells elongated dramatically in an EF. […] We quantified the elongation of the cells using a long:short axis ratio. […]

[3] = system: HaCaT human keratinocytes; assay: scratch assay, keratinocyte migration (culture inserts, time-lapse microscopy); type: cell-based

Compound: N#CC(=C(/N)Sc1ccccc1N)/C(C#N)=C(\N)Sc1ccccc1N [U0126]
- orientation response (HUVEC cells [1]): decreased the orientation to a similar extent

Compound: 1-L-6-hydroxymethyl-chiro-inositol 2-[(R)-2-O-methyl-3-O-octadecylcarbonate] [Akt inhibitor]
- orientation response (HUVEC cells [1]; inhibitor 50 μM, 1 hour before and during EF): significantly decreased the orientation response
- long:short axis ratio in EF-treated cells (HUVEC cells [2]): significantly decreased the long:short axis ratio

Compound: COc1cc([C@@H]2c3cc4c(cc3[C@H](O)[C@H]3COC(=O)[C@@H]23)OCO4)cc(OC)c1OC [IGF-1R inhibitor, picropodophyllin]
- increased keratinocyte migration observed with LLEC, with IGF-1R inhibitor ([3]; 50 nM picropodophyllin just prior to scratch assay): attenuated the increased keratinocyte migration

Compound: C/C1=C/C(=O)O[C@@H]2C[C@@H](CC[C@H](C)/C=C\C=C\CC1)O[C@@](O)([C@@H]1CSC(=O)N1)C2 [Latrunculin A]
- orientation response (HUVEC cells [1]; latrunculin 50 nM, 1 hour before and during EF): suppressed the orientation response significantly
- EF-induced elongation response (HUVEC cells [2]; latrunculin 50 nM): completely abolished

Compound: C[C@@H](N)[C@H]1CC[C@H](C(=O)Nc2ccncc2)CC1 [Y27632]
- Oi (orientation index) (HUVEC cells [1]; value in the sentence on U0126 (50 μM)): 0.33±0.03
- long:short axis ratio in EF-treated cells (HUVEC cells [2]): significantly decreased the long:short axis ratio

Compound: CC(=O)N[C@@H](CS)C(=O)O [N-Acetyl Cysteine]
- increased migration observed with LLEC, with N-Acetyl Cysteine ([3]; 5 mM, 1 h pretreatment before scratch assay): failed to reproduce the increased migration
